Values quoted from earlier work, collected in patent US20050261210A1, “Nonsense suppressor agents in treatment of cutaneous and gastrointestinal disorders” (priority 2004, published 2005).
“Also recorded” adds a separate entry of the source. Read-outs that look alike come from different tables or passages of the source.

Tests used:
dystrophin [1] = conditions: cultured muscle cells from mdx mice
dystrophin [2] = conditions: mdx mice, systemic treatment
dystrophin [3] = conditions: Duchenne muscular dystrophy patients with nonsense mutations
CFTR [4] = conditions: cultured respiratory epithelial cells with CFTR nonsense mutations
CFTR [5] = conditions: transgenic mouse model of nonsense-mutated CFTR
CFTR [6] = conditions: cystic fibrosis patients with CFTR nonsense mutation, application to nasal mucosa
[7] = tested on: termination suppression (readthrough); conditions: for levels of termination suppression: in vitro assay, compared with tobramycin

Row | Molecule | dystrophin level (dystrophin [1]) | dystrophin expression (dystrophin [2]) | muscle injury (dystrophin [2]; versus untreated mdx mice) | dystrophin expression (dystrophin [3]) | expression of functional CFTR protein (CFTR [4]) | expression of functional CFTR protein (CFTR [5]) | functional CFTR protein (CFTR [6]) | levels of termination suppression [7] | level of read-through ([7]; compared with gentamicin)
1 | gentamicin | detectable levels of dystrophin | expression of the protein throughout the animal | protection against the muscle injury | treatment-dependent expression of dystrophin in some patients; also recorded: lack of response in others | restore expression of functional CFTR protein | restore expression of functional CFTR protein | restoration of functional CFTR protein | higher than those provided by tobramycin | –
2 | NCC[C@H](O)C(=O)N[C@@H]1C[C@H](N)[C@@H](O[C@H]2O[C@H](CN)[C@@H](O)[C@H](O)[C@H]2O)[C@H](O)[C@H]1O[C@H]1O[C@H](CO)[C@@H](O)[C@H](N)[C@H]1O [amikacin] | – | – | – | – | – | – | – | higher than those provided by tobramycin | higher level of read-through than gentamicin in some contexts
